Here are results for two compounds from ChEMBL document CHEMBL5346945, “Discovery and Optimization of the First ATP Competitive Type-III c-MET Inhibitor” (J Med Chem, 2023).

Data set [1] is described as follows: Metabolic stability in Han Wistar rat hepatocytes assessed as intrinsic clearance measured per million cells at 1 uM measured at 0.5 to 2 hrs by LC-MS/MS analysis. As to conditions: time 0.5-2 hrs, read-out: CLH. The class given is ADME, cell-based, Hepatocyte.
Data set [2] can be described thus: Lipophilicity, logD of compound in octanol and water at pH 7.4 measured by shake-flask method. The class given is physicochemical.
Data set [3] can be described thus: Metabolic stability in human liver microsomes assessed as intrinsic clearance at 1 uM preincubated with NADPH for 8 mins followed by compound addition measured at 0.5 to 30 mins by LC-MS/MS analysis. As to conditions: time 0.5-30 min, read-out: CLH. The class given is ADME, Microsome.
Data set [4] concerns the target T1, Hepatocyte growth factor receptor (Homo sapiens, UniProt P08581). Briefly: Inhibition of wild type c-MET (unknown origin) using ATP and poly(L-glutamic acid-L-tyrosine) as substrate incubated for 60 mins measured by ADP-Glo kinase assay.
Data set [5] concerns the target T1, Hepatocyte growth factor receptor. As to conditions: dose 100.0 nM.
Description: Inhibition of c-MET (unknown origin) at 100 nM relative to control
For data set [6], the target named is T2, Tyrosine-protein kinase Mer (Homo sapiens) (UniProt Q12866).
T2 sequence (whole entry): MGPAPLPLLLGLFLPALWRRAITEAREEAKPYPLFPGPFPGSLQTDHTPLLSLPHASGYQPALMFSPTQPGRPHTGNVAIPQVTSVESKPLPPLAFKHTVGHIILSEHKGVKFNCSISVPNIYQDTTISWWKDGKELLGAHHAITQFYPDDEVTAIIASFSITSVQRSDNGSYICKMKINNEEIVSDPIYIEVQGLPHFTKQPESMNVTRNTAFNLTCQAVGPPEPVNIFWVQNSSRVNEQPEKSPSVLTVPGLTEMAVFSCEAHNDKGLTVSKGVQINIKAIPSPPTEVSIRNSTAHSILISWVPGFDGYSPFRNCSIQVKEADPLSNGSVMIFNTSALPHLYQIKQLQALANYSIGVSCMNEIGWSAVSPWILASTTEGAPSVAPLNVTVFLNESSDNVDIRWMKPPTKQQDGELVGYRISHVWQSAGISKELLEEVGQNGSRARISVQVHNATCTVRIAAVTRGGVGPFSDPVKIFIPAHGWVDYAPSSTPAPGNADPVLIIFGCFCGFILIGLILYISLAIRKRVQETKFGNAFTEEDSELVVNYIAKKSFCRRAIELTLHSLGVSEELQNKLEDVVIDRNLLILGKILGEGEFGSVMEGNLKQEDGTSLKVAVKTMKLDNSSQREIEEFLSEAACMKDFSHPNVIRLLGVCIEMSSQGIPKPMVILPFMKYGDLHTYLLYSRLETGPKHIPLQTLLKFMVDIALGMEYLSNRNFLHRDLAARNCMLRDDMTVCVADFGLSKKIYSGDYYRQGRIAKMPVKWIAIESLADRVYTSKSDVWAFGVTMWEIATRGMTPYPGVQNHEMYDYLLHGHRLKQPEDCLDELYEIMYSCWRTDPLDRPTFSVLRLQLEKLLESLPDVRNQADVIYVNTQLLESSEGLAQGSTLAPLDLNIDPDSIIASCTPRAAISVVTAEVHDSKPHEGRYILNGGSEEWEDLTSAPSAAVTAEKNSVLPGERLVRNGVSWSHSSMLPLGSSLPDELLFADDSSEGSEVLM
As to conditions: dose 100.0 nM.
Description: Inhibition of MERTK (unknown origin) at 100 nM relative to control

The target in data set [7] is Macrophage-stimulating protein receptor (Homo sapiens) (UniProt Q04912). As to conditions: dose 100.0 nM.
Macrophage-stimulating protein receptor (Homo sapiens), sequence (Q04912 25-304 limits assumed): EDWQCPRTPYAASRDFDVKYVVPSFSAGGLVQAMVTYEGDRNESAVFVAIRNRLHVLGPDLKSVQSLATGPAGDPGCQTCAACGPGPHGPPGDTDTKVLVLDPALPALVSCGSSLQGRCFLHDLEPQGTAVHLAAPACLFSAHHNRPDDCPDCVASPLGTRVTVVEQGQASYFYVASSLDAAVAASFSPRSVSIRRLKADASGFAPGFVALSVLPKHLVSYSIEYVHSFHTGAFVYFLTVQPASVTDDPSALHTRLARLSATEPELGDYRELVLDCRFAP
Macrophage-stimulating protein receptor (Homo sapiens), sequence (Q04912 310-1400 limits assumed): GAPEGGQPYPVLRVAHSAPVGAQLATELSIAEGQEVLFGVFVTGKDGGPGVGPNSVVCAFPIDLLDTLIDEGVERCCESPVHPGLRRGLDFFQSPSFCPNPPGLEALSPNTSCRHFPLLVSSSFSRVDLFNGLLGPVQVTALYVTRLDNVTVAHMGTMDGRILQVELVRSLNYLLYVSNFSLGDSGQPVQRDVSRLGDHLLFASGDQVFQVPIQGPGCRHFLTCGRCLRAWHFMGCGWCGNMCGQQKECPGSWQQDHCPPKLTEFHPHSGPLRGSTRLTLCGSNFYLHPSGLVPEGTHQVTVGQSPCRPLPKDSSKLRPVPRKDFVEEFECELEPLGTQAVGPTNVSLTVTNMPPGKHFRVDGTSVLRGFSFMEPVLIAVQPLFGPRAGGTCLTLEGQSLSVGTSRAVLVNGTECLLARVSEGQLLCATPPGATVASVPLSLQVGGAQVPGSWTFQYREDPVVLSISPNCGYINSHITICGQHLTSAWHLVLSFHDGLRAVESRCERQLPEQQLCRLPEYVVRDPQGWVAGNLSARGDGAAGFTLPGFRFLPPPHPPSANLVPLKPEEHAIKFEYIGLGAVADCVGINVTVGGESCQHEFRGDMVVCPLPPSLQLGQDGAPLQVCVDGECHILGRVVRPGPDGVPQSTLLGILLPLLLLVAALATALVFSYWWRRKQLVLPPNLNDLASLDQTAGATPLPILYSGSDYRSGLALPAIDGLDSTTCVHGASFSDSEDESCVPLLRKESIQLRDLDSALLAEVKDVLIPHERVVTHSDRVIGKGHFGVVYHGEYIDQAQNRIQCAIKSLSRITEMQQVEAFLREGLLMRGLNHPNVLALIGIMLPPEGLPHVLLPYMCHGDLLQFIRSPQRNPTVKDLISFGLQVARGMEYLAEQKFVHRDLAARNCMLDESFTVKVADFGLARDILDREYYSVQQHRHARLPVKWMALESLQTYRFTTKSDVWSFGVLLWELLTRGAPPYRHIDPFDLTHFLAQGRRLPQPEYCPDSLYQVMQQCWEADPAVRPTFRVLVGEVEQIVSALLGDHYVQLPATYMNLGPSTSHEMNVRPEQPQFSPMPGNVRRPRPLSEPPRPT
Description: Inhibition of MST1R (unknown origin) at 100 nM relative to control
Data set [8] addresses T3, Tyrosine-protein kinase receptor TYRO3 (Homo sapiens) (UniProt Q06418).
T3 sequence (whole entry): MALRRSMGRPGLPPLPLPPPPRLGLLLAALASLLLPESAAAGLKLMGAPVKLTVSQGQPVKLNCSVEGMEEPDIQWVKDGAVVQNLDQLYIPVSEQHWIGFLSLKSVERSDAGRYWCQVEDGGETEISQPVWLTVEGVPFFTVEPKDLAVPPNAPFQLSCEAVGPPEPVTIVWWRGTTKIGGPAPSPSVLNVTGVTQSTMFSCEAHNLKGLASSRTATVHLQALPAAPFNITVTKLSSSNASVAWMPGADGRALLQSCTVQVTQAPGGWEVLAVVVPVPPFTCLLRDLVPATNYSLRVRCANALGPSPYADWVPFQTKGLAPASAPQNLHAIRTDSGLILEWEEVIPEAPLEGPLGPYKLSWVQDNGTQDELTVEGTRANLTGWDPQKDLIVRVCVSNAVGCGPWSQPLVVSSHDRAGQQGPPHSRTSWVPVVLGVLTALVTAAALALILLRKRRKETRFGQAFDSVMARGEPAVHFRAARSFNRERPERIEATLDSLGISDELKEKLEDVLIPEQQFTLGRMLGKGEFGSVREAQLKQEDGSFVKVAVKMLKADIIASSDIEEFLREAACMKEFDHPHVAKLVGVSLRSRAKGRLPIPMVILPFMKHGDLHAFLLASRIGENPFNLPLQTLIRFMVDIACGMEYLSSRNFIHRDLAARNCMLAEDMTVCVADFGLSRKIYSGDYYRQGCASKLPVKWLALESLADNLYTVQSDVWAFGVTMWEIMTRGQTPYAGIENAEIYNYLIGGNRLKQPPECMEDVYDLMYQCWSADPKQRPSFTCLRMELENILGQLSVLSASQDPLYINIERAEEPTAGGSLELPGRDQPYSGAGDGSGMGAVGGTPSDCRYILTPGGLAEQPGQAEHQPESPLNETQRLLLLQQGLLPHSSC
Particulars: dose 100.0 nM.
Description: Inhibition of TYRO3 (unknown origin) at 100 nM relative to control

In data set [9] the target is T1, Hepatocyte growth factor receptor. Briefly: Inhibition of wild type c-MET in human NCI-H1993 cells incubated for 4 hrs measured by HTRF assay. The class given is cell-based.
Data set [10] has as its target Tyrosine-protein kinase receptor UFO (Homo sapiens) (UniProt P30530). As to conditions: dose 100.0 nM.
Description: Inhibition of AXL (unknown origin) at 100 nM relative to control

T1 sequence (P08581 whole entry): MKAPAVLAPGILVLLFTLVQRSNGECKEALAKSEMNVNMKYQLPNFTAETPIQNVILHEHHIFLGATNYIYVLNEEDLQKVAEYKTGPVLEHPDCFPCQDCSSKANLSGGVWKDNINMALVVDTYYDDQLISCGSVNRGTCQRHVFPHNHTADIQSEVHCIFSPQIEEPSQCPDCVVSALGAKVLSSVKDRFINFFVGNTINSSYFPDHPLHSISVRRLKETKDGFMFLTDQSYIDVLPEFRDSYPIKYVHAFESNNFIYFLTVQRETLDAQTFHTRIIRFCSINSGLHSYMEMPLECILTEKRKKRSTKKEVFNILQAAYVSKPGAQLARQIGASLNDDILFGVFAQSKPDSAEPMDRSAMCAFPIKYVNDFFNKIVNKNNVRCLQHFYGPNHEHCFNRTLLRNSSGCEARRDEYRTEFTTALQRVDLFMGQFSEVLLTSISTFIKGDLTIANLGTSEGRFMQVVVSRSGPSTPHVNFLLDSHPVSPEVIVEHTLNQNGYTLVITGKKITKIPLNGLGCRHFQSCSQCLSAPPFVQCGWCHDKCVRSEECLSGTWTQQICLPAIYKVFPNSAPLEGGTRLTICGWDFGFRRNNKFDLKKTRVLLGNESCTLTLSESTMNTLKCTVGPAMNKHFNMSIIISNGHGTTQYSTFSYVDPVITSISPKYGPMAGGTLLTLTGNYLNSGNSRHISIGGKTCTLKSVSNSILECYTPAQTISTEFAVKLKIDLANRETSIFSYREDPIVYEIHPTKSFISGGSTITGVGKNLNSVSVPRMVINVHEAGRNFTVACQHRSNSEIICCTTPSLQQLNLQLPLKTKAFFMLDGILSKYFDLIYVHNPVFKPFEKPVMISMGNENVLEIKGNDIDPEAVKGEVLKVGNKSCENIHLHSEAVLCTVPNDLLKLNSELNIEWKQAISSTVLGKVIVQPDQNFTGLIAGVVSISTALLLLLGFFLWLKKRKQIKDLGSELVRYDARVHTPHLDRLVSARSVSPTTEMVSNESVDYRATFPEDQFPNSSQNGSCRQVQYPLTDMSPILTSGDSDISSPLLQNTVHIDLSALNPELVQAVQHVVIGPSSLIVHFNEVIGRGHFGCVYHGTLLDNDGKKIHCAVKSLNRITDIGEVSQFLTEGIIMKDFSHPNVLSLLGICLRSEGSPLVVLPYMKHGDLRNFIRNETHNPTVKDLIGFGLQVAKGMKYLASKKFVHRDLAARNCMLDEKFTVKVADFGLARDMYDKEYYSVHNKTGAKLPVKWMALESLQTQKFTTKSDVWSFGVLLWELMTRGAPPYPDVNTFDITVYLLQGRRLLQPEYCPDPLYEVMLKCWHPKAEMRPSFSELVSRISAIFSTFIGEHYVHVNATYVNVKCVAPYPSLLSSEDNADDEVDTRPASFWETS
Tyrosine-protein kinase receptor UFO (Homo sapiens), sequence (P30530 whole entry): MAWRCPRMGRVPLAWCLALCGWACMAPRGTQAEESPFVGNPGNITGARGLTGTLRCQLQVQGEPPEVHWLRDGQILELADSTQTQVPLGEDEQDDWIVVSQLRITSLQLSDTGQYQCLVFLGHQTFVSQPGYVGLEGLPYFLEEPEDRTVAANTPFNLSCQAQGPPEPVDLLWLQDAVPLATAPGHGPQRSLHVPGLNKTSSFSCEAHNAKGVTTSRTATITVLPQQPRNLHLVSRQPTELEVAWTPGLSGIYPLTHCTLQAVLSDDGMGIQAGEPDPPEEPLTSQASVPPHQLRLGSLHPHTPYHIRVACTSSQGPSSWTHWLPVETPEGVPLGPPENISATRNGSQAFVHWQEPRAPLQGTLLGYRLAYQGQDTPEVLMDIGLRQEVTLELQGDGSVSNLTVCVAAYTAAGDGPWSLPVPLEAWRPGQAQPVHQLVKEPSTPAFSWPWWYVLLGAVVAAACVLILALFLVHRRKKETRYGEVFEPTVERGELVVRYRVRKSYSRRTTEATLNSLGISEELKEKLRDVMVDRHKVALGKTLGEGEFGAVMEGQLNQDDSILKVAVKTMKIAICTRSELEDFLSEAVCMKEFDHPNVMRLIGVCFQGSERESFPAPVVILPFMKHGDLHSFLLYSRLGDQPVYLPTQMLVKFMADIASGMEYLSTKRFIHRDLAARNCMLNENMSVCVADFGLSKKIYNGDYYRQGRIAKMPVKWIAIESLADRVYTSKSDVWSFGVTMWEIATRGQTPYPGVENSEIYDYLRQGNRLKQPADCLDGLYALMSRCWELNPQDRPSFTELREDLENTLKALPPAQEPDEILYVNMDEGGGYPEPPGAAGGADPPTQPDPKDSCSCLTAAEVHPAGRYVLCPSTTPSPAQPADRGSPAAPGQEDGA

As for `C#Cc1n[nH]c2c(-c3cn([C@@H](C)c4ccccn4)c(=O)[nH]c3=O)cc(F)cc12`, the hepatocyte CLint at 1 µM in data set [1] worked out at 6.07 µL/min/1e6 cells. Further, in data set [2], the logD came to 2.7. Besides, in data set [3], the microsomal CLint at 1 µM was found to be 18 µL/min/mg. In data set [4], this compound displayed an IC50 of 16 nM. Further, the inhibition in data set [5] was 80%; in [6], 75.3%; in [7], under 50%; in data set [8] it was under 50%.

Consider `C#Cc1n[nH]c2c(-c3cn([C@@H](C)c4ccccc4)c(=O)[nH]c3=O)cc(F)cc12`, for which the hepatocyte CLint at 1 µM in [1] worked out at 15 µL/min/1e6 cells. Moreover, in [2], the logD is recorded as 3.4. Also, the microsomal CLint at 1 µM in data set [3] is under 3 µL/min/mg. Also, 13 nM corresponded to half-maximal inhibition in data set [4] (IC50). In addition, a half-maximal effect in [9] (EC50) was put at 1170 nM. For the same compound, the inhibition in [10] is under 50%; in [5], 80%; in data set [6] it was 80%; in data set [7] it was under 50%.
